The numbers were not newly measured in patent US7528137B2, “Compounds, compositions, and methods” (Cytokinetics, Inc., priority 2002, dated 2009), which cites them from elsewhere.

The test system of this data set is A549 cells. Particulars: data provided by National Cancer Institute, Developmental Therapeutic Program.
In the case of `NC(=O)NO` [hydroxyurea], the GI50 is 500000 nM.

On to `CC(=O)O[C@H]1C(=O)[C@@]2(C)[C@H]([C@H](OC(=O)c3ccccc3)[C@]3(O)C[C@H](OC(=O)[C@H](O)[C@@H](NC(=O)c4ccccc4)c4ccccc4)C(C)=C1C3(C)C)[C@]1(OC(C)=O)CO[C@@H]1C[C@@H]2O` [paclitaxel], for which the GI50 was 4 nM.

For `O=c1[nH]cc(F)c(=O)[nH]1` [5-fluorouracil], the GI50 was 1000 nM.

On to `COc1cccc2c1C(=O)c1c(O)c3c(c(O)c1C2=O)C[C@@](O)(C(=O)CO)C[C@@H]3O[C@H]1C[C@H](N)[C@H](O)[C@H](C)O1` [doxorubicin], for which the concentration for 50% growth inhibition (GI50) was 63 nM.

Usually GI50 stands for the concentration giving 50% growth inhibition.
